Test results: US12668797B2, “Compositions and methods for treating chronic myelomonocytic leukemia” (H. Lee Moffitt Cancer Center and Research Institute, Inc., priority 2019, dated 2026)

Key:
[1] = tested on: myelomonocytic leukemia cell lines; assay: Apoptosis in myelomonocytic leukemia cell lines; format: cell-based, human
[2] = tested on: acute promyelocytic leukemia (APL); conditions: ATRA based therapy in APL; cited from earlier work
THP-1 cells = assay: Differentiation of THP-1 MALAT1 CRISPR KO cells (CD11b/CD14); format: cell-based, human; conditions: MALAT1 depleted THP-1 versus control; ATRA 1 μM for 96 h (FIG. 7C)
Description: To confirm that MALAT1 depletion could induce differentiation in human models of leukemia, MALAT1's major transcriptional start site was deleted via CRISPR/Cas9 as previously described in several single cell derived clones of the THP-1 cell line. THP-1 cells were chosen because they were derived from a patient with acute monocytic leukemia, they harbor an NRAS mutation, and they had the highest levels of MALAT1 in our screen of myeloid cell lines.

CMML patients = conditions: 10 CMML patients, 45mg/m^2 of ATRA daily; cited from earlier work
THP-1 xenografts = assay: THP-1 MALAT1 KO / WT xenografts treated with ATRA; format: in vivo, mice
Description: Multiple MALAT1 depleted THP-1 leukemia cell line clones have been generated utilizing dual sgRNA-targeted CRISPR technology and partnered with IONIS pharmaceuticals to test clinical grade MALAT1 ASOs in a panel of cell lines. These reagents were used to evaluate the effects of MALAT1 depletion on the above cellular processes to include proliferation, cell cycle, and differentiation. […] Additionally, these models were used to test the impact of MALAT1 depletion on normal and leukemic stem cell self-renewal capacity as well as rigorously interrogated the numbers of hematopoietic stem and progenitor cells upon MALAT1 depletion. Leukemia human cell line xenograft models were used to test the in vivo consequence of MALAT1 depletion with the above CRISPR generated clones.
Differentiation syndrome is a common serious adverse event in human leukemia patients treated with differentiating agents. It is primarily characterized by an inflammatory reaction often a result of differentiated myeloid cells accumulating in target organs, especially the lungs.

[3] = tested on: NRAS^Q61R/+ and NRAS^Q61R/+/MALAT1^KO/KO transplanted mice; assay: ATRA treatment of primary transplants from NRAS Q61R/+ GEM model of CMML; format: in vivo; conditions: ATRA intraperitoneally
Description: To validate the differentiation effect in vivo primary transplants were generated from NRAS^Q61R/+/MALAT1^KO/KO and NRAS^Q61R/+ followed by treatment with ATRA. […] Differentiation syndrome is a treatable but potentially fatal complication of approved therapies which induce differentiation in myeloid neoplasms hallmarked by increases in myeloid cell adhesion, invasion, and ultimately lung infiltration. There was a higher proportion of terminally differentiated cells in the lungs of NRAS^Q61R/+/MALAT1^KO/KO mice compared to controls (FIG. 8B). Further, MALAT1 depleted THP-1 cells had increased adhesion and endothelial migration compared to controls consist with an increased potential for differentiation syndrome (FIG. 8C).

human leukemic cells = assay: Differentiation markers CD11b and CD14 by flow cytometry in human leukemic cells; format: cell-based; conditions: stimulated cells, MALAT1 depleted versus control cells

Row | SMILES | dose-dependent apoptosis ([1]; ATRA alone) | apoptosis ([1]; ATRA in combination with MALAT1 depletion) | induction of apoptosis following ATRA treatment ([1]; FIG. 2, ATRA treatment) | cure rates [2] | response of differentiation markers (THP-1 cells) | patients who developed differentiation syndrome (CMML patients) | patients who succumbed to differentiation syndrome (CMML patients) | patients with improvement in transfusion requirements (CMML patients) | differentiation syndrome (THP-1 xenografts; ATRA treated MALAT1 KO NSG xenografts, FIG. 1) | survival of xenografted mice (THP-1 xenografts; MALAT1 depleted xenografts treated with ATRA, pilot experiment) | survival of xenografted mice (THP-1 xenografts; WT xenografts treated with ATRA) | differentiation markers (Gr-1/Mac-1) [3] | differentiation markers CD11b and CD14 by flow cytometry upon stimulation (human leukemic cells)
1 | CC1=C(/C=C/C(C)=C/C=C/C(C)=C/C(=O)O)C(C)(C)CCC1 [ATRA, all-trans retinoic acid] | did not cause a robust dose-dependent apoptosis | induced apoptosis in a dose-dependent manner | minimal induction of apoptosis | ~95% | more robust response | 2 patients | 1 patients | four | evidence of differentiation syndrome | succumbed one-week post-ATRA therapy | remained unaffected | statistically significant differences | enhanced
2 | CCCCCCCCCCCCCC(=O)O[C@@H]1[C@@H](C)[C@@]2(O)[C@@H](C=C(CO)C[C@]3(O)C(=O)C(C)=C[C@@H]23)[C@@H]2C(C)(C)[C@]12OC(C)=O [PMA, phorbol myristate acetate] |  |  |  |  | more robust response |  |  |  |  |  |  |  | enhanced
